Laboratory results from patent US9861651B2, “Use of nicotinamide riboside to treat hearing loss” (Cornell University, priority 2012, dated 2018).

How the values were obtained:
[1] = system: P5 DIV3 rat spiral ganglia neurons; assay: Rotenone-induced neurite degeneration (neurite beading/blebbing, NF-200 stain) in spiral ganglia neuron culture; type: cell-based
Method: Dissociated spiral ganglia neurons were harvested from P5 rats. Briefly, pups were rapidly decapitated, and cochlea were dissected. The modiolus was then dissected and digested (0.1% trypsin, 0.1% collagenase, HBSS−/−) for 45 min at 37° C. Sequential trituration was performed with fire-polished pipets to release cells from the tissue, and cells were transferred to laminin/polylysine-coated 24-well plates. Neurons were incubated overnight in culture media (DMEM high glucose, N2 supplement, 10 μg/ml insulin, 25 μg/ml BDNF, 25 μg/ml NT3). To elicit neurite degeneration, cultures were incubated with rotenone (10 μM) for 2 hr in the presence/absence of 10 mM NAD+.
Spiral ganglia neuron cultures were fixed with 4% paraformaldehyde and permeabilized with 0.5% Triton X-100™/PBS for 10 min. After washing, cells were blocked with 4% donkey serum and incubated with mouse anti-NF200 (1:1000) overnight at 4° C. Neurite beading was then measured using a previously described, unbiased computerized protocol (Sasaki, Y. et al., J. Neuroscience, 29, 5525-5535 (2009)).
Axonal degeneration in a variety of neurons can be blocked by treatment with millimolar concentrations of NAD+ (Avery, M. A., et al., Current Biology, CB 22, 596-600 (2012)). […] This effect was blocked by simultaneous treatment of neurons with 10 mM NAD+. […]

[2] = system: spiral ganglia neurites / inner hair cells of noise-exposed mice; assay: Retraction of spiral ganglia neurites from inner hair cells after noise exposure (cochlear immunohistology); type: in vivo; settings: basal turn of the cochlea, NR before and after acoustic trauma
Method: Mouse cochlea were prepared as described in Whitlon, D. S. et al., Brain Research Protocols, 6, 159-166 (2001). Mouse cochlea were quickly dissected from the temporal bone following rapid decapitation. Once separated, the apex of the cochlea was gently fenestrated, and the cochlea were immediately fixed in 4% paraformaldehyde overnight at 4° C. The cochlea were then washed with three changes of PBS and incubated in a decalcification solution (10% EDTA/PBS pH 7.4) under constant rotation at 4° C. for 1 week. The decalcification solution was changed daily. Cochlea were washed in 3 changes of PBS and then treated with progressively increasing sucrose concentrations from 10-30%. The cochlea were incubated overnight in 30% sucrose at 4° C. The cochlea were incubated an additional 24 hr in OCT compound (Tissue-Tek). […]
Noise-induced hearing loss is associated with retraction of spiral ganglia neurites from the inner hair cells. As the most prominent hearing losses are seen in the portion of the auditory spectrum that contains the highest audible frequencies, the basal turn of the cochlea where this portion of the auditory spectrum is detected was focused on. […] Immunofluorescence labeling of the cochlea can readily show whether spiral ganglia neurites are forming their proper contacts with the base of inner hair cells. […]

[3] = system: tissue NAD levels; assay: Tissue NAD levels after intraperitoneal NR; type: in vivo; settings: intraperitoneal injection twice daily at 1000 mg/kg
Method: (§1) Nicotinamide riboside (NR) is a well-tolerated precursor of NAD+. In these experiments, NR was administered by intraperitoneal injection twice daily at 1000 mg/kg, a dose which increases tissue NAD levels by 50%, either for 5 days prior to noise exposure and 14 days after noise exposure (NR Before+ After), 5 days prior to noise exposure (NR Before), or 14 days after noise exposure (NR After). […] The hearing loss at 8000 Hz, […], and 32,000 Hz is set forth in the Table and is depicted graphically in FIGS. 4A-4C, respectively.

[4] = system: noise-exposed C57BL6 mice; assay: Auditory brainstem response (ABR) testing of noise-induced hearing loss after 90 dB octave band noise exposure for 2 hr; type: in vivo; set-up: Avg. hearing loss: unit not given here; settings: for transient threshold shift: 24 hours after noise exposure
Method: Auditory brainstem response testing was performed as previously described (Willott, J. F., Current Protocols in Neuroscience, 8.21B, B1-B12 (2005). Animals were tested following sedation with ketamine and xylazine (40 mg/kg and 10 mg/kg, respectively). Tone burst stimuli at 8, 16, and 32 kHz for 0.5 msec were used to elicit auditory evoked responses using an auditory brainstem recording system (Intelligent Hearing Systems, Miami, Fla.). An evoked response was determined by identifying waveforms at proper time intervals that increased in magnitude with increasing volume as described previously by Willott.
Animals were exposed to a 90 dB octave band for 2 hr in a cage placed in a soundproof chamber (MAC-2, Industrial Acoustics Company, Bronx N.Y.). The mice were able to freely move throughout the cage. The octave band was generated using ToneGen software (NCH software, Greenwood Village, Colo.) routed through an Audiosource Amp100 amplifier driving two down-facing Fostex FT-96H speakers. The sound pressure level was confirmed at 0, 30, 60, and 90 min, and again just prior to completion of sound exposure using an Extech microphone 407736.
To test whether augmented NAD biosynthesis protects from noise-induced hearing loss, auditory brainstem responses (ABR) elicited by tone burst stimuli after acoustic trauma was measured. An ABR occurs when a mouse hears the tone burst stimulus. In these experiments, acoustic trauma was elicited in mice by a 90 dB octave band noise exposure for 120 min. To quantify the degree of hearing loss, “threshold shifts” were measured. These shifts refer to the increased level of sound intensity that is required to elicit an ABR. The threshold for detecting sound stimuli is determined by exposing mice to 0.5 msec tone bursts at a specific frequency and volume. […] Transient threshold shifts (TTS) refer to a temporary hearing loss 24 hours after noise exposure, and permanent threshold shifts (PTS) refer to hearing loss that remains 2 weeks after exposure.
as §1

`NC(=O)c1ccc[n+]([C@@H]2O[C@H](COP(=O)([O-])OP(=O)(O)OC[C@H]3O[C@@H](n4cnc5c(N)ncnc54)[C@H](O)[C@@H]3O)[C@@H](O)[C@H]2O)c1` [NAD+] was tested, and the “effect on rotenone-induced neurite degeneration” value ([1]; simultaneous treatment with 10 mM NAD+ and 10 μM rotenone, 2 hr) was “blocked”.

For `NC(=O)c1ccc[n+]([C@@H]2O[C@H](CO)[C@@H](O)[C@H]2O)c1` [NR, Nicotinamide riboside], the “neurite retraction (distance of spiral ganglia neurites from inner hair cells)” value ([2]; 24 hr after noise exposure) was 4.3±4.5 μm, the “neurite retraction (distance of spiral ganglia neurites from inner hair cells)” value ([2]; 14 d after noise exposure) was 2.5±3.5 μm and the “increase of tissue NAD levels” value [3] was 50%. For the same compound, the transient threshold shift ([4]; 8000 Hz, NR i.p. twice daily 1000 mg/kg) was 6 dB, the transient threshold shift ([4]; 16,000 Hz, NR i.p. twice daily 1000 mg/kg) was 8 dB and the transient threshold shift ([4]; 32,000 Hz, NR i.p. twice daily 1000 mg/kg) was 16 dB. For the same compound, the Avg. hearing loss ([4]; NR after (i.p. twice daily 1000 mg/kg, 14 days after noise), Baseline, 8 kHz) was 14, the Avg. hearing loss ([4]; NR after, 1 wk post noise, 8 kHz) was 17 and the Avg. hearing loss ([4]; NR after, 1 wk post noise, 32 kHz) was 28. The Avg. hearing loss ([4]; NR after, 2 wks post noise, 8 kHz) was 18, the Avg. hearing loss ([4]; NR after, 2 wks post noise, 16 kHz) was 15 and the Avg. hearing loss ([4]; NR after, 2 wks post noise, 32 kHz) was 28. The Avg. hearing loss ([4]; NR after, 24 h post noise, 8 kHz) was 23, the Avg. hearing loss ([4]; NR after, 24 h post noise, 16 kHz) was 23 and the Avg. hearing loss ([4]; NR after, 24 h post noise, 32 kHz) was 37. For the same compound, the Avg. hearing loss ([4]; NR after, Baseline, 16 kHz) was 19, the Avg. hearing loss ([4]; NR after, Baseline, 32 kHz) was 31 and the Avg. hearing loss ([4]; NR after, Pre-noise, 8 kHz) was 14. For the same compound, the Avg. hearing loss ([4]; NR after, Pre-noise, 16 kHz) was 21, the Avg. hearing loss ([4]; NR after, Pre-noise, 32 kHz) was 16 and the Avg. hearing loss ([4]; NR before (i.p. twice daily 1000 mg/kg, 5 days prior to noise), Baseline, 8 kHz) was 14. For the same compound, the Avg. hearing loss ([4]; NR before and after (i.p. twice daily 1000 mg/kg, 5 days prior to and 14 days after noise), Baseline, 8 kHz) was 16, the Avg. hearing loss ([4]; NR before and after, 1 wk post noise, 8 kHz) was 15 and the Avg. hearing loss ([4]; NR before and after, 1 wk post noise, 16 kHz) was 25. For the same compound, the Avg. hearing loss ([4]; NR before and after, 1 wk post noise, 32 kHz) was 40, the Avg. hearing loss ([4]; NR before and after, 2 wks post noise, 8 kHz) was 20 and the Avg. hearing loss ([4]; NR before and after, 2 wks post noise, 16 kHz) was 20. It also gave an Avg. hearing loss ([4]; NR before and after, 2 wks post noise, 32 kHz) of 20, an Avg. hearing loss ([4]; NR before and after, 24 h post noise, 8 kHz) of 22 and an Avg. hearing loss ([4]; NR before and after, 24 h post noise, 16 kHz) of 26. For the same compound, the Avg. hearing loss ([4]; NR before and after, 24 h post noise, 32 kHz) was 44, the Avg. hearing loss ([4]; NR before and after, Baseline, 16 kHz) was 13 and the Avg. hearing loss ([4]; NR before and after, Baseline, 32 kHz) was 19. For the same compound, the Avg. hearing loss ([4]; NR before and after, Pre-noise, 8 kHz) was 16, the Avg. hearing loss ([4]; NR before and after, Pre-noise, 16 kHz) was 18 and the Avg. hearing loss ([4]; NR before and after, Pre-noise, 32 kHz) was 28. It also gave an Avg. hearing loss ([4]; NR before, 1 wk post noise, 8 kHz) of 15, an Avg. hearing loss ([4]; NR before, 1 wk post noise, 16 kHz) of 23 and an Avg. hearing loss ([4]; NR before, 1 wk post noise, 32 kHz) of 23. It also gave an Avg. hearing loss ([4]; NR before, 2 wks post noise, 8 kHz) of 18, an Avg. hearing loss ([4]; NR before, 2 wks post noise, 16 kHz) of 18 and an Avg. hearing loss ([4]; NR before, 2 wks post noise, 32 kHz) of 23. It also gave an Avg. hearing loss ([4]; NR before, 24 h post noise, 8 kHz) of 18, an Avg. hearing loss ([4]; NR before, 24 h post noise, 16 kHz) of 25 and an Avg. hearing loss ([4]; NR before, 24 h post noise, 32 kHz) of 38. The Avg. hearing loss ([4]; NR before, Baseline, 16 kHz) was 16, the Avg. hearing loss ([4]; NR before, Baseline, 32 kHz) was 21 and the Avg. hearing loss ([4]; NR before, Pre-noise, 8 kHz) was 13. The Avg. hearing loss ([4]; NR before, Pre-noise, 16 kHz) was 18, the Avg. hearing loss ([4]; NR before, Pre-noise, 32 kHz) was 17 and the “protection from permanent hearing loss” value ([4]; all 3 frequencies (8000, 16,000, 32,000 Hz), NR i.p. twice daily 1000 mg/kg) was “similarly protected”.

With `C=C(C)[C@H]1Cc2c(ccc3c2O[C@@H]2COc4cc(OC)c(OC)cc4[C@@H]2C3=O)O1` [rotenone] the “neurite degeneration, as measured by the presence of neurite blebbing” value ([1]; 10 μM rotenone, in as early as 2 hr) was “resulted in neurite degeneration”.
